Key:
Type in all cases: in vivo, human
[1] = system: healthy men and women playing video games; assay: Profile of Mood States (POMS) during gaming; details: 200 mg daily; for Tension, mean ± SD / Total Mood Disturbance (Tension + Depression + Anger + Fatigue + Confusion − Vigor), Mean ± SD / Vigor, mean ± SD / Tension, Mean of visit / Total Mood Disturbance, Mean of visit / Vigor, Mean of visit: n = 5; for Tension, Mean of visit / Total Mood Disturbance, Mean of visit / Vigor, Mean of visit: mean of 0, 1, 2 h; for Tension, Δ Baseline / Total Mood Disturbance, Δ Baseline / Vigor, Δ Baseline: versus baseline; for Tension, Δ PLA / Total Mood Disturbance, Δ PLA / Vigor, Δ PLA: versus placebo
Description: The effectiveness of study-products (paraxanthine and placebo) was assessed by measuring in-game performance, cognition during gaming (Stroop Test) and mood status during gaming (Profile of Mood States (POMS)). The POMS was completed pre-dose, after 60 minutes of gaming and immediately after completing 120 minutes of video gaming during all study visits. The POMS measured six subscales of mood, including tension-anxiety, depression-dejection, anger-hostility, vigor-activity, fatigue-inertia, and confusion-bewilderment. Subjects were asked to use a 5-point Likert scale (0=not at all, 1=a little, 2=moderately, 3=quite a bit, 4=extremely), to review a list of 65 words (feelings) and rank the degree to which they are experiencing that feeling at the moment. Since high vigor-activity scores reflect good moods or emotions, whereas low scores in the other subscales reflect a good mood or emotion, the total mood disturbance (TMD) score was computed by adding the five negative subscale scores (tension-anxiety, depression-dejection, anger-hostility, fatigue-inertia, and confusion-bewilderment) and subtracting the vigor-activity score. Higher numeric values of the TMD score indicate a greater degree of mood disturbance.

healthy subject = assay: Video game Tetris, game performance measured by play time; details: 100 mg prior to playing Tetris; one subject
Source text: Each of the three games were separated by a one-week washout period. In Tetris, the player brings down blocks from the top of the screen. The player can move the blocks around, either left to right and/or you can rotate them. The blocks fall at a certain rate, but the player can make them fall faster if he/she is sure of the positioning. The game Tetris becomes more challenging the longer you play. It becomes faster the better the player performs. The player has to make the same decisions but under a higher level of pressure. Each time the player clears a line in Tetris, the player is awarded more points. Each time the pieces reach the top of the screen, the game is over. Game performance was measured by play time. The player was not allowed to press a button to increase the speed of the current piece's descent or cause the piece to drop and lock into place immediately, known as a “soft drop” and a “hard drop”, respectively.

[2] = system: healthy men and women playing video games; assay: Stroop Color and Word Test during gaming; details: 200 mg daily
Description: The effectiveness of study-products (paraxanthine and placebo) was assessed by measuring in-game performance, cognition during gaming (Stroop Test) and mood status during gaming (Profile of Mood States (POMS)). The Stroop Color and Word Test (SCWT) was administered after 0, 3, and 6 six weeks of supplementation to assess cognitive performance during gaming throughout the study protocol. The Stroop Test was completed pre-dose, after 60 minutes of gaming and immediately after completing 120 minutes of video gaming during all study visits. The SCWT is a neuropsychological test that follows the procedures of Stroop (Stroop 1935). Briefly, the SCWT (with congruency) was administered for five continuous minutes via an online software application. One of four words (red, yellow, green, blue) appeared at random, until a selection was made, then a new word appeared at random. Subjects selected the response which matches the color of the ink of the randomly selected word (not the color that the word described). The number of correct answers served as the basis of a total Stroop score.

[3] = 3 weeks, listed as paraxanthine
[4] = 6 weeks, listed as paraxanthine

SMILES: Cn1c(=O)[nH]c2ncn(C)c2c1=O [Paraxanthine, paraxanthine]
- Tension, mean ± SD ([1]; 3 weeks, 0 h): 4.0 ± 2.8
- Total Mood Disturbance (Tension + Depression + Anger + Fatigue + Confusion − Vigor), Mean ± SD ([1]; 3 weeks, 0 h): −6.2 ± 16.6
- Vigor, mean ± SD ([1]; 3 weeks, 0 h): 20.4 ± 6.8
- Tension, mean ± SD ([1]; 3 weeks, 1 h): 2.0 ± 1.2
- Total Mood Disturbance (Tension + Depression + Anger + Fatigue + Confusion − Vigor), Mean ± SD ([1]; 3 weeks, 1 h): −6.8 ± 13.3
- Vigor, mean ± SD ([1]; 3 weeks, 1 h): 18.0 ± 10.0
- Tension, mean ± SD ([1]; 3 weeks, 2 h): 2.4 ± 1.3
- Total Mood Disturbance (Tension + Depression + Anger + Fatigue + Confusion − Vigor), Mean ± SD ([1]; 3 weeks, 2 h): −6.4 ± 15.8
- Vigor, mean ± SD ([1]; 3 weeks, 2 h): 16.4 ± 10.0
- Tension, Mean of visit ([1]; 3 weeks): 2.8
- Total Mood Disturbance, Mean of visit ([1]; 3 weeks): −6.5
- Vigor, Mean of visit ([1]; 3 weeks): 18.3
- Tension, mean ± SD ([1]; 6 weeks, 0 h): 2.6 ± 1.8
- Total Mood Disturbance (Tension + Depression + Anger + Fatigue + Confusion − Vigor), Mean ± SD ([1]; 6 weeks, 0 h): −8.2 ± 13.8
- Vigor, mean ± SD ([1]; 6 weeks, 0 h): 18.6 ± 8.6
- Tension, mean ± SD ([1]; 6 weeks, 1 h): 2.0 ± 1.0
- Total Mood Disturbance (Tension + Depression + Anger + Fatigue + Confusion − Vigor), Mean ± SD ([1]; 6 weeks, 1 h): −11.2 ± 12.4
- Vigor, mean ± SD ([1]; 6 weeks, 1 h): 18.2 ± 9.2
- Tension, mean ± SD ([1]; 6 weeks, 2 h): 2.2 ± 1.3
- Total Mood Disturbance (Tension + Depression + Anger + Fatigue + Confusion − Vigor), Mean ± SD ([1]; 6 weeks, 2 h): −8.8 ± 13.4
- Vigor, mean ± SD ([1]; 6 weeks, 2 h): 17.2 ± 9.8
- Tension, Mean of visit ([1]; 6 weeks): 2.3
- Total Mood Disturbance, Mean of visit ([1]; 6 weeks): −9.4
- Vigor, Mean of visit ([1]; 6 weeks): 18.0
- Tension, mean ± SD ([1]; Baseline visit, 0 h): 5.4 ± 2.2
- Total Mood Disturbance (Tension + Depression + Anger + Fatigue + Confusion − Vigor), Mean ± SD ([1]; Baseline visit, 0 h): −2.2 ± 10.5
- Vigor, mean ± SD ([1]; Baseline visit, 0 h): 19.2 ± 5.3
- Tension, mean ± SD ([1]; Baseline visit, 1 h): 5.6 ± 5.4
- Total Mood Disturbance (Tension + Depression + Anger + Fatigue + Confusion − Vigor), Mean ± SD ([1]; Baseline visit, 1 h): −2.6 ± 18.6
- Vigor, mean ± SD ([1]; Baseline visit, 1 h): 17.4 ± 6.5
- Tension, mean ± SD ([1]; Baseline visit, 2 h): 2.8 ± 1.3
- Total Mood Disturbance (Tension + Depression + Anger + Fatigue + Confusion − Vigor), Mean ± SD ([1]; Baseline visit, 2 h): −0.4 ± 16.1
- Vigor, mean ± SD ([1]; Baseline visit, 2 h): 13.2 ± 6.4
- Tension, Mean of visit ([1]; Baseline visit): 4.6
- Total Mood Disturbance, Mean of visit ([1]; Baseline visit): −1.7
- Vigor, Mean of visit ([1]; Baseline visit): 16.6
- Tension, Δ Baseline ([1]; 3 weeks): −39.1%
- Total Mood Disturbance, Δ Baseline ([1]; 3 weeks): −282%
- Vigor, Δ Baseline ([1]; 3 weeks): +10.2%
- Vigor, Δ Baseline [1, 3]: 10.2%
- Tension, Δ PLA ([1]; 3 weeks): −51.7%
- Total Mood Disturbance, Δ PLA ([1]; 3 weeks): −166%
- Vigor, Δ PLA ([1]; 3 weeks): +28.9%
- Vigor, Δ PLA [1, 3]: 28.9%
- Tension, Δ Baseline ([1]; 6 weeks): −50.0%
- Total Mood Disturbance, Δ Baseline ([1]; 6 weeks): −453%
- Vigor, Δ Baseline ([1]; 6 weeks): +8.4%
- Vigor, Δ Baseline [1, 4]: 8.4%
- Tension, Δ PLA ([1]; 6 weeks): −61.0%
- Total Mood Disturbance, Δ PLA ([1]; 6 weeks): −189%
- Vigor, Δ PLA ([1]; 6 weeks): +59.3%
- Vigor, Δ PLA [1, 4]: 59.3%
- worsening of total mood disturbance during continued gaming ([1]; after 3 and 6 weeks): an effect that was not observed in the paraxanthine group
- total mood disturbance, effect in words ([1]; after 3 and 6 weeks, compared to baseline and to placebo): improved total mood disturbance
- decrease of feelings of tension-anxiety compared to baseline ([1]; after 3 weeks): 39.1%
- decrease of feelings of tension-anxiety compared to placebo ([1]; after 3 weeks): 51.7%
- decrease of feelings of tension-anxiety compared to baseline ([1]; after 6 weeks): 50%
- decrease of feelings of tension-anxiety compared to placebo ([1]; after 6 weeks): 61.0%
- course of tension with duration of play ([1]; the longer the subject played): tension decreased in the paraxanthine group the longer the subject played
- gaming performance (play time), effect in words (healthy subject): increased gaming performance compared to placebo, and compared to caffeine intake
- increase in cognitive performance (Stroop test score) compared to baseline ([2]; 3 weeks, after one hour of gaming): 39%
- increase in cognitive performance (Stroop test score) compared to baseline ([2]; 3 weeks, after two hours of gaming): 89%
- increase in cognitive performance (Stroop test score) compared to baseline ([2]; 3 weeks, pre-gaming): 25%
- increase in cognitive performance (Stroop test score) compared to baseline ([2]; 6 weeks, after one hour of gaming): 89%
- increase in cognitive performance (Stroop test score) compared to baseline ([2]; 6 weeks, after two hours of gaming): 119%
- increase in cognitive performance (Stroop test score) compared to baseline ([2]; 6 weeks, pre-gaming): 25%
- habituation ([2]; even after 6 weeks): No habituation was observed

— US20220331327A1, “THE USE OF PARAXANTHINE TO IMPROVE PERFORMANCE IN VIDEO GAMERS” (priority 2021, published 2022)
